The values that follow come from patent publication US9708340B2, “Urea derivatives and their use as fatty-acid binding protein (FABP) inhibitors” (Hoffmann-La Roche Inc., priority 2013, dated 2017).

For experiment [1], the target named is human FABP4 (huFABP4) (Homo sapiens (Human), UniProt P15090). The experiment is described as follows: Tb TR-FRET assay, binding of Bodipy labeled fatty acid to His6 tagged huFABP4. The conditions noted are these: read-out: IC50 h-fabp4-ecoli-r. (TR-FRET usually uses a lanthanide donor and a delayed reading to cut background.)
human FABP4 (huFABP4), sequence (P15090 whole entry): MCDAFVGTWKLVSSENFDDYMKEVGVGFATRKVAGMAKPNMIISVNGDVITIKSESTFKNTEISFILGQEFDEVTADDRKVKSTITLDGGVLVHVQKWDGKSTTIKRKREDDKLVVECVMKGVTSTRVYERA
For experiment [2], the target named is human FABP5 (huFABP5) (Homo sapiens (Human), UniProt Q01469). Kind of experiment: Tb TR-FRET assay, binding of Bodipy labeled fatty acid to His6 tagged huFABP5. As to conditions: read-out: IC50 h-fabp5-ecoli-r.
human FABP5 (huFABP5), sequence (Q01469 whole entry): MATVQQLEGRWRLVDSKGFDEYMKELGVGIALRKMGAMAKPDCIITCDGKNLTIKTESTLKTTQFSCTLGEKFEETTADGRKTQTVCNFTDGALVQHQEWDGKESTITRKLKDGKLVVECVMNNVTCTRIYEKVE
For experiment [3], the system named is mice under HF diet. As to conditions: cited from earlier work.
Experiment [4] concerns ob/ob mice. As to conditions: cited from earlier work.
In experiment [5] the test system is ApoE KO mice. The conditions noted are these: cited from earlier work.
Where [6] appears, read: 50 nM FABP protein, […] Bodipy labeled fatty acid.

Read-outs that look alike come from different tables or passages of the source.

For orientation: IC50 means the concentration at which inhibition is half-maximal. In the case of `O=C(O)[C@H]1CCCN1C(=O)Nc1cc(Cl)ccc1-c1ccc(F)cc1` [Example 54, (R)-1-(4-chloro-4′-fluorobiphenyl-2-ylcarbamoyl)pyrrolidine-2-carboxylic acid], the IC50 in experiment [1] (setting [6]) was 60 nM; in experiment [2] (setting [6]) it was above 29600 nM.
Take `O=C(Nc1ccccc1-c1ccccc1)N1CCCC1(C(=O)O)c1ccccc1` (stereo not shown) [Example 6, 1-(Biphenyl-2-ylcarbamoyl)-2-phenyl-pyrrolidine-2-carboxylic acid]: the IC50 in experiment [1] (setting [6]) was 620 nM; in experiment [2] (setting [6]) it was above 50000 nM.
As for `O=C(O)[C@H]1CCN1C(=O)Nc1cc(Cl)ccc1-c1cccc(F)c1` [Example 38, (R)-1-(4-chloro-3′-fluorobiphenyl-2-ylcarbamoyl)azetidine-2-carboxylic acid], the values for the IC50 in experiment [1] (setting [6]) and in experiment [2] (setting [6]) were 30 nM and above 50000 nM, respectively.
Turning to `O=C(O)[C@H]1CCCN1C(=O)Nc1cc(Cl)ccc1-c1cccc(Cl)c1` [Example 55, (R)-1-(3′,4-dichlorobiphenyl-2-ylcarbamoyl)pyrrolidine-2-carboxylic acid], the IC50 in experiment [1] (setting [6]) was 770 nM; in experiment [2] (setting [6]), above 50000 nM.
In the case of `O=C(O)[C@H]1CCCN1C(=O)Nc1c(-c2ccccc2)sc2ncccc12` [Example 22, (R)-1-(2-phenylthieno[2,3-b]pyridin-3-ylcarbamoyl)pyrrolidine-2-carboxylic acid], the IC50 was 1660 nM in experiment [1] (setting [6]) and above 50000 nM in experiment [2] (setting [6]).
The corresponding values for `C=CCc1cc(Cl)cc(NC(=O)N2CCC[C@@H]2C(=O)O)c1-c1ccccc1` [Example 23, (R)-1-(6-allyl-4-chlorobiphenyl-2-ylcarbamoyl)pyrrolidine-2-carboxylic acid] are 110 nM and 1290 nM.
Consider `O=C(O)[C@H]1CCCN1C(=O)Nc1cc(C(F)(F)F)ccc1-c1ccccc1` [Example 13, (R)-1-(4-(trifluoromethyl)biphenyl-2-ylcarbamoyl)pyrrolidine-2-carboxylic acid], for which the IC50 was 3950 nM in experiment [1] (setting [6]) and above 50000 nM in experiment [2] (setting [6]).
Regarding `O=C(O)C1SCCN1C(=O)Nc1ccccc1-c1ccccc1` (stereo not shown) [Example 7, 3-(Biphenyl-2-ylcarbamoyl)-thiazolidine-2-carboxylic acid], the results for the IC50 in experiment [1] (setting [6]) and in experiment [2] (setting [6]) were 9820 nM and above 50000 nM, respectively.
For the compound `O=C(O)[C@H]1CCN1C(=O)Nc1cc(Cl)ccc1-c1cccc(F)c1F` [Example 36, (R)-1-(4-chloro-2′,3′-difluorobiphenyl-2-ylcarbamoyl)azetidine-2-carboxylic acid], the IC50 is 60 nM in experiment [1] (setting [6]) and above 50000 nM in experiment [2] (setting [6]).
`O=C(O)[C@H]1CCN1C(=O)Nc1cc(Cl)ccc1-c1ccc(F)cc1F` [Example 63, (R)-1-(4-chloro-2′,4′-difluorobiphenyl-2-ylcarbamoyl)azetidine-2-carboxylic acid]: the half-maximal inhibitory concentration (IC50) in experiment [1] (setting [6]) is 30 nM; in experiment [2] (setting [6]), above 50000 nM.
For the compound `O=C(O)[C@H]1CCCN1C(=O)Nc1c(-c2ccccc2)sc2ccccc12` [Example 21, (R)-1-(2-phenylbenzo[b]thiophen-3-ylcarbamoyl)pyrrolidine-2-carboxylic acid], the IC50 in experiment [1] (setting [6]) is 670 nM; in experiment [2] (setting [6]) it was above 50000 nM.
Turning to `O=C(O)[C@H]1CCCN1C(=O)Nc1cc(Cl)cc(C2=CCCCC2)c1-c1ccccc1` [Example 26, (R)-1-[4-chloro-6-(cyclohexen-1-yl)-biphenyl-2-ylcarbamoyl]pyrrolidine-2-carboxylic acid], the figures for the IC50 in experiment [1] (setting [6]) and in experiment [2] (setting [6]) were 530 nM and 70 nM, respectively.
On the same counts, the results for `O=C(O)[C@H]1CCN1C(=O)Nc1cc(Cl)ccc1-c1ccccc1F` [Example 37, (R)-1-(4-chloro-2′-fluorobiphenyl-2-ylcarbamoyl)azetidine-2-carboxylic acid] are 30 nM and above 50000 nM.
Regarding `O=C(O)[C@H]1CCCN1C(=O)Nc1ccccc1Oc1ccccc1` [Compound 3], in experiment [3], the “insulin and glucose tolerance” value is “no improvement”; the “plasma triglyceride and free fatty acid” value is reported as “reduction”.
As to `CCc1ccc(-c2ccccc2)c(NC(=O)N2CCC[C@@H]2C(=O)O)c1` [Example 62, (R)-1-(4-ethylbiphenyl-2-ylcarbamoyl)pyrrolidine-2-carboxylic acid], the IC50 in experiment [1] (setting [6]) is 1860 nM; in experiment [2] (setting [6]), above 50000 nM.
In the case of `O=C(O)[C@H]1CCCN1C(=O)Nc1cc(Cl)cc(-c2ccccc2)c1-c1ccccc1` [Example 19, (R)-1-(5′-Chloro-[1,1′;2′,1″]terphenyl-3′-ylcarbamoyl)-pyrrolidine-2-carboxylic acid], the IC50 is 500 nM in experiment [1] (setting [6]) and 1220 nM in experiment [2] (setting [6]).
With `O=C(O)[C@H]1CCCN1C(=O)Nc1ccccc1Oc1ccccc1` [Example 3, (R)-1-(2-phenoxyphenylcarbamoyl)pyrrolidine-2-carboxylic acid], the IC50 is 11700 nM in experiment [1] (setting [6]) and above 50000 nM in experiment [2] (setting [6]).
On the same counts, the results for `O=C(O)[C@H]1CCCN1C(=O)Nc1cc(F)cc(F)c1-c1ccccc1` [Example 14, (R)-1-(4,6-difluorobiphenyl-2-ylcarbamoyl)pyrrolidine-2-carboxylic acid] are 310 nM and above 6860 nM.
As for `O=C(O)[C@H]1CCCN1C(=O)Nc1cc(Cl)ccc1-c1ccsc1` [Example 52, (R)-1-(5-chloro-2-(thiophen-3-yl)phenylcarbamoyl)pyrrolidine-2-carboxylic acid], the IC50 in experiment [1] (setting [6]) was 60 nM; in experiment [2] (setting [6]), above 10400 nM.
On the same counts, the results for `O=C(O)[C@H]1CCCN1C(=O)Nc1cc(Cl)ccc1Oc1ccccc1` [Example 5, (R)-1-(5-chloro-2-phenoxyphenylcarbamoyl)pyrrolidine-2-carboxylic acid] are 7410 nM and above 50000 nM.
As for `O=C(O)[C@H]1CCN1C(=O)Nc1cc(Cl)ccc1-c1ccccc1` [Example 12, (R)-1-(4-chlorobiphenyl-2-ylcarbamoyl)azetidine-2-carboxylic acid], the IC50 in experiment [1] (setting [6]) was 20 nM; in experiment [2] (setting [6]), above 50000 nM.
`O=C(O)[C@H]1CCCN1C(=O)Nc1cc(OC(F)(F)F)ccc1-c1ccccc1` [Example 17, (R)-1-(4-(trifluoromethoxy)biphenyl-2-ylcarbamoyl)pyrrolidine-2-carboxylic acid]: the IC50 in experiment [1] (setting [6]) was 5710 nM; in experiment [2] (setting [6]), above 50000 nM.
Consider `O=C(O)[C@H]1CCN1C(=O)Nc1ccccc1-c1ccccc1` [Example 28, (R)-1-(biphenyl-2-ylcarbamoyl)azetidine-2-carboxylic acid], for which the IC50 is 80 nM in experiment [1] (setting [6]) and above 50000 nM in experiment [2] (setting [6]).
Regarding `O=C(O)[C@@H]1[C@H]2C[C@H]2CN1C(=O)Nc1ccccc1-c1ccccc1` (racemic) [Example 9, (1SR,2SR,5RS)-3-(Biphenyl-2-ylcarbamoyl)-3-aza-bicyclo[3.1.0]hexane-2-carboxylic acid], the IC50 is 9100 nM in experiment [1] and above 50000 nM in experiment [2].
Consider `O=C(O)[C@H]1CCCN1C(=O)Nc1cc(F)ccc1-c1ccccc1` [Example 16, (R)-1-(4-fluorobiphenyl-2-ylcarbamoyl)pyrrolidine-2-carboxylic acid], for which the IC50 in experiment [1] (setting [6]) was 1070 nM; in experiment [2] (setting [6]), above 50000 nM.
On to `Cc1cc(-c2ccccc2)c(NC(=O)N2CC[C@@H]2C(=O)O)cc1Cl` [Example 31, (R)-1-(4-chloro-5-methylbiphenyl-2-ylcarbamoyl)azetidine-2-carboxylic acid], for which the IC50 turned out to be 30 nM in experiment [1] (setting [6]) and 5080 nM in experiment [2] (setting [6]).
As for `CCc1c(-c2ccccc2)c(-c2ccccc2)nn1-c1ccccc1-c1cccc(OCC(=O)O)c1` [BMS309403], in experiment [4] (clamp study in ob/ob mice), the “glucose uptake in muscle and adipose” value is reported as “increased”; the hepatic glucose production entry is recorded as “reduction”. Also, in experiment [4] (ob/ob mice), the “body weight and energy consumption” value is on record as “no change”; the hepatic steatosis entry is “reduction”. Also, the atherosclerotic placques formation result in experiment [5] is recorded as “decrease”.
Regarding `O=C(O)[C@H]1CCCN1C(=O)Nc1ccc(Cl)cc1-c1ccccc1` [Example 2, (R)-1-(5-chlorobiphenyl-2-ylcarbamoyl)pyrrolidine-2-carboxylic acid], the IC50 in experiment [1] (setting [6]) came out at 2040 nM; in experiment [2] (setting [6]), 21000 nM.
The corresponding values for `O=C(O)[C@H]1CCCN1C(=O)Nc1ccsc1-c1ccccc1` [Example 24, (R)-1-(2-phenylthiophen-3-ylcarbamoyl)pyrrolidine-2-carboxylic acid] are 1670 nM and above 50000 nM.
The corresponding values for `O=C(O)[C@H]1CCCN1C(=O)Nc1ccccc1Cc1ccccc1` [Example 4, (R)-1-(2-benzylphenylcarbamoyl)pyrrolidine-2-carboxylic acid] are 3340 nM and above 50000 nM.
The corresponding values for `N#Cc1cc(Cl)cc(NC(=O)N2CCC[C@@H]2C(=O)O)c1-c1ccccc1` [Example 25, (R)-1-(4-chloro-6-cyanobiphenyl-2-ylcarbamoyl)pyrrolidine-2-carboxylic acid] are 190 nM and 15000 nM.
For `O=C(O)[C@H]1CCCN1C(=O)Nc1c(F)cccc1-c1ccccc1` [Example 11, (R)-1-(3-fluorobiphenyl-2-ylcarbamoyl)pyrrolidine-2-carboxylic acid], the IC50 was 860 nM in experiment [1] (setting [6]) and above 50000 nM in experiment [2] (setting [6]).
For `N#Cc1ccc(-c2ccccc2)c(NC(=O)N2CCC[C@@H]2C(=O)O)c1` [Example 20, (R)-1-(4-cyanobiphenyl-2-ylcarbamoyl)pyrrolidine-2-carboxylic acid], the IC50 in experiment [1] (setting [6]) was 10500 nM; in experiment [2] (setting [6]), above 50000 nM.
On the same counts, the results for `NC(=O)c1cccc(-c2ccc(Cl)cc2NC(=O)N2CCC[C@@H]2C(=O)O)c1` [Example 56, (R)-1-(3′-carbamoyl-4-chlorobiphenyl-2-ylcarbamoyl)pyrrolidine-2-carboxylic acid] are 11100 nM and above 50000 nM.
As for `CC1(C(=O)O)CCCN1C(=O)Nc1ccccc1-c1ccccc1` (stereo not shown) [Example 15, 1-(biphenyl-2-ylcarbamoyl)-2-methylpyrrolidine-2-carboxylic acid], the IC50 in experiment [1] (setting [6]) was 860 nM; in experiment [2] (setting [6]), above 50000 nM.
